{"source": "patent US4959353A", "about": "“Promotion of corneal stroma wound healing with human epidermal growth factor prepared from recombinant DNA” (University of Louisville Foundation, priority 1987, dated 1990)", "key": {"open wounds": {"tested_on": "open wounds", "settings": "topical application; mice; cited from earlier work"}, "blister wounds": {"tested_on": "blister wounds", "settings": "mEGF in saline solution once daily until healed; human subjects; cited from earlier work"}, "interscapular incision [1]": {"tested_on": "interscapular incision", "assay": "Tensile strength of incisions treated with a single dose of EGF-saline", "type": "in vivo, rats", "settings": "after 10 days; single dose in saline", "experimental": "Adult male Sprague Dawley rats weighing 230-250 g were anesthetized and a single interscapular incision 5 cm long penetrating the panniculus carnosus was created in the dorsal midline. Equal amounts of hEGF (10 μg) formulated in one of the four formulations were placed in the base of individual incision tracts, and then sutured. At daily intervals, rats were sacrificed by carbon dioxide inhalation and incisions with 3 mm of surrounding nonwounded skin were excised to the underlying muscle. Total amounts of hEGF present in incision areas were calculated by measuring residual ^125 I-hEGF present in samples using a Beckman 4000 gamma scintillation counter, and were expressed as percentages of original hEGF applied to incisions. At each time point, the average amount of hEGF retained in the incision for each formulation was calculated from the values from three rats. From each incision, three test strips approximately 5 mm wide were cut perpendicular to the original incision, one from the middle and two from each end. Measurements of incision strength were conducted using a Unite-O-Matic FM-20 tensiometer instrument. For each formulation, the mean tensile strength was calculated from the mean value of all incision measurements in the group. […]"}, "interscapular incision [2]": {"tested_on": "interscapular incision", "assay": "Tensile strength of incisions treated with repeated doses of EGF-saline", "type": "in vivo, rats", "experimental": "Interscapular incisions were created as above on the backs of 22 rats and a perforated catheter was placed in the base of the incision and brought out through a separate stab incision at the base of the neck. Incisions of half the rats were treated three times a day for five days by rapidly injecting 200 μl of PBS containing 50 μg of hEGF, while the control rats received injections of PBS. Seven and 14 days after surgery, rats were sacrificed by carbon dioxide asphixiation, incisions and surrounding tissue were removed as above. Three strips were taken from tensile strength measurement from each incision.\nAn interscapular incision was made on the back of each rat and a perforated catheter was placed in the base of the incision and brought out through a separate stab wound and the incision was sutured. Incisions were treated three times a day for five days by injecting 200 μl of saline alone or containing 50 μg EGF. After seven and fourteen days, rats were sacrificed and triplicate tensile strength measurements were determined for each rat. Values are mean and standard deviation and n is the number of tensile strength measurements."}, "[3]": {"tested_on": "capillary growth in rabbit cornea", "assay": "Rabbit cornea angiogenesis assay with hEGF EVA pellets", "type": "in vivo, rabbits", "design": "key to Angiogenic Response: 4+: profuse capillary growth; 3+: extensive capillary growth; 2+: moderate capillary growth; 1+: very little capillary growth; 0: no capillary growth", "experimental": "hEGF was dilated in sterile PBS to concentrations of 500, 100, 20, 4 and 0.8 μg/ml and lyophilized. Ethylene-vinyl acetate (EVA) copolymer beads were mixed with methylene chloride to produce a 10% w/v casting solution. Approximately 0.1 ml of casting solution was added to the lyophilized hEGF and mixed. […]\nThe pellets were implanted into intrasomal corneal pockets located 1.5 mm from the limbus in the eyes of pigmented adult rabbits. […]"}}, "data": [{"substance": "mEGF: epidermal growth factor obtained from mouse salivary glands (NSYPGCPSSYDGYCLNGGVCMHIESLDSYTCNCVIGYSGDRCQTRDLRWWELR; not fully specified; Epidermal growth factor; UniProt P01132 977-1029, looked up)", "values": [{"measurement": "healing of open wounds", "setting": "open wounds", "value": "promote healing in various degrees"}, {"measurement": "acceleration in the growth of the epidermal layer", "setting": "blister wounds", "value": "No acceleration"}]}, {"substance": "hEGF: human epidermal growth factor polypeptide expressed from plasmid pYαEGF-23 in yeast strain AB103 and purified", "values": [{"measurement": "tensile strength vs PBS-treated or simply sutured incisions", "setting": "interscapular incision [1]", "value": "not significantly stronger"}, {"measurement": "average increase in strength over saline treated incisions", "setting": "interscapular incision [2]; 7 days after surgery", "value": 35, "unit": "%"}, {"measurement": "microscopic appearance of incision tract", "setting": "interscapular incision [2]; 7 days after surgery", "value": "very narrow with closely opposed edges"}, {"measurement": "tensile strength vs saline-treated incisions", "setting": "interscapular incision [2]; fourteen days after surgery", "value": "not different"}, {"measurement": "Angiogenic Response", "setting": "[3]; 0.04 mg/pellet (so in the source), EVA pellet", "value": "1+"}, {"measurement": "Angiogenic Response", "setting": "[3]; 0.18 mg/pellet (so in the source), EVA pellet", "value": "1+"}, {"measurement": "Angiogenic Response", "setting": "[3]; 1.1 mg/pellet (so in the source), EVA pellet", "value": "2+"}, {"measurement": "Angiogenic Response", "setting": "[3]; 6.2 mg/pellet (so in the source), EVA pellet", "value": "3+"}, {"measurement": "Angiogenic Response", "setting": "[3]; 25 mg/pellet (so in the source), EVA pellet in rabbit corneal pocket", "value": "4+"}, {"measurement": "angiogenesis in rabbit cornea assay", "setting": "[3]; sustained release from EVA pellets", "value": "induced angiogenesis"}]}]}
